Laboratory results taken from paper PMC6963673, “Phenylboronic Acids Probing Molecular Recognition against Class A and Class C β-lactamases” (Antibiotics, 2019).
Read-outs that look alike come from different tables or passages of the source.

What was measured:
[1] = target: T1, KPC-2 (Klebsiella pneumoniae, UniProt Q9F663); test: In vitro enzyme inhibition assay against KPC-2 (nitrocefin reporter substrate); assay type: biochemical; conditions: for drop in potency against KPC-2: meta substituent
T1 construct: made in house
Description: (§1) Expression and purification of recombinant KPC-2 and GES-5 have been performed as already reported. For recombinant AmpC from Pseudomonas aeruginosa, the optimized full-length synthetic gene was purchased (GeneArt service under Life Technologie) and subcloned into pRham vector to have it in the full-length version. Protein was expressed according to standard protocol: P. aeruginosa AmpC-β-lactamase was obtained from a culture of E. coli BL21(DE3), carrying the plasmid vector pRham-AmpC. 1L of LB-medium with kanamycin 50 μg/mL, at 37 °C, 150 RPM for 24 hrs. Expression was induced by 0.2% w/v Rhamnose. After 5–6 hours the cell broth was centrifuged at 4500 RPM, 4 °C, for 20 min. The sample was loaded on a column packed with 25 mL of Affigel-10 (Biorad) functionalized with 3 MAPB (3-methylaminophenylboronic acid). The column was previously equilibrated with the loading buffer. The protein was eluted (flow rate, 1 mL/min) with 5 column-volumes of elution-buffer (0.5 M boric acid, 0.5 M NaCl, pH 7.0). β-lactamase activity was checked in each elution fraction using 200 μM CENTA [35]. Active fractions were pooled, concentrated by ultrafiltration using a Millipore Ultra-15 (Ultracel-10K; Millipore) and checked by SDS-Page. The protein pool final concentration (1 mg/mL) was assessed using Bradford and UV-Vis assays. Purified AmpC β-lactamase was stored at −80 °C [36].
(§2) The half-maximal inhibitory concentration (IC50) of phenylboronic acid derivatives was determined as follows. Reactions were monitored using a Jasco V-730 spectrophotometer at […] wavelength. Boronic acids were dissolved in dimethyl sulfoxide (DMSO) to a concentration of 10 mM and stored at −20°C. Each compound was tested at concentrations ranging from 1 µM to 200 µM for inhibitory activity vs full-length KPC-2 enzyme, GES-5 and AmpC in 50 mM of PB + 50 mM KCl at pH 7.4 at 25°C with 0.01% v/v Triton X-100, to avoid compound aggregation and promiscuous inhibition in presence of nitrocefin as reported substrate. For tests against KPC-2, reporter substrate nitrocefin was used at 40 μM, (Km 36 μM) while for tests against GES-5 and AmpC reporter substrate nitrocefin was used at 200 μM (Km 208 μM and Km 200 respectively). All the experiments were performed in triplicate. Experimental error never exceeded 5%. The reaction was typically initiated by adding the enzyme to the reaction buffer last. The IC50 values were determined by measuring the rate of hydrolysis of a reporter substrate in the presence of five different inhibitor concentrations at λ 482 nm. The binding affinity ki was estimated, for each compound in the library, from the determined IC50 by Cheng–Prusoff equation as per competitive inhibition (Table 1).

[2] = system: Pseudomonas aeruginosa overexpressing AmpC; test: Checkerboard microdilution assay and FICI, ceftazidime plus inhibitor; assay type: cell-based; conditions: for FICI Antibiotic + inhibitor: CAZ + inhibitor, synergy FICI ≤0.5, indifference >0.5 and ≤4, antagonism >4; for nature of interaction with antibiotic: Pseudomonas aeruginosa, in combination with CAZ; for MIC Antibiotic: antibiotic alone
Protocol: To investigate the ability of our phenylboronic acid derivatives 2-5 to reach the periplasmic space, where SBLs are secreted and concentrated in Gram negative bacteria, and synergically protect β-lactam antibiotics hydrolysis by BLs, drug interactions model via the fractional inhibitory concentration index (FICI) was determined against clinical strains overexpressing BLs targets of our studies (Table 2).
(§3) To assess the nature of the in vitro interactions between the compounds and antibiotics against selected clinical strains, the data obtained from the checkerboard assay were used to calculate the fractional inhibitory concentration index (FICI). Briefly, exponential cultures of the bacterial strains in Mueller Hinton broth were inoculated in the wells of microtiter plates containing different concentrations of the cited antibiotics, with and without phenylboronic acids, and incubated at 37 °C for 18 hours. The growth in each well was quantified spectrophotometrically at 595 nm by a microplate reader TECAN Infinite (Tecan Trading AG, Switzerland). The minimal inhibitory concentration (MIC) for each drug and combination of drugs was defined as the concentration of drug that reduced growth by 80% compared to that of organisms grown in the absence of drug. The fractional inhibitory concentration index (FICI) is the mathematical expression of the effect of the combination of antibacterial agents expressed in Equation (1):(1) ΣFIC=FICA+FICB=MICAB/MICA+MICBA/MICB in which MICA and MICB are the MICs of drugs A and B acting alone, and MICAB and MICBA are the MICs of drugs A and B in combination. Synergy is defined when the FICI is ≤0.5, antagonism when the FICI is > 4, and indifference when the FICI is >0.5 and ≤4.

[3] = system: clinical isolates of Klebsiella pneumoniae expressing KPC-2; test: Checkerboard microdilution assay and FICI, meropenem plus inhibitor; assay type: cell-based; conditions: for FICI Antibiotic + inhibitor: MEM + inhibitor, synergy FICI ≤0.5, indifference >0.5 and ≤4, antagonism >4; for nature of interaction with antibiotic: Klebsiella pneumoniae strains, in combination with MEM
Protocol: as §3

[4] = target: T2, AmpC (Pseudomonas aeruginosa, UniProt P24735); test: In vitro enzyme inhibition assay against AmpC (nitrocefin reporter substrate); assay type: biochemical; conditions: for drop in potency against AmpC: ortho substitution
T2 construct: subcloned into pRham vector to have it in the full-length version; made in house; host or cells: E. coli BL21(DE3), plasmid pRham-AmpC
Description: as §1, §2

[5] = target: T3, GES-5 (Klebsiella pneumoniae, UniProt Q09HD0); test: In vitro enzyme inhibition assay against GES-5 (nitrocefin reporter substrate); assay type: biochemical
T3 construct: made in house
Description: as §1, §2

[6] = target: T2, AmpC; conditions: read-out: AmpC Ki; lead phenylboronic acid; cited from earlier work

T1 sequence (Q9F663 25-293 limits assumed): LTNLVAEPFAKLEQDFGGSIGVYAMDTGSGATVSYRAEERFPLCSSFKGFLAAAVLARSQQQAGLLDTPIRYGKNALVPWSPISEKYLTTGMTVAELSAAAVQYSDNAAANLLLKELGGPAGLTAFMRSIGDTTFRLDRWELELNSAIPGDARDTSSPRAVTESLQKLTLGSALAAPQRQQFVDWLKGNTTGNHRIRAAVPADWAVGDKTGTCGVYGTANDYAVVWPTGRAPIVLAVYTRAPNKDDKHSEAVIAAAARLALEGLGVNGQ
T3 sequence (Q09HD0 19-287): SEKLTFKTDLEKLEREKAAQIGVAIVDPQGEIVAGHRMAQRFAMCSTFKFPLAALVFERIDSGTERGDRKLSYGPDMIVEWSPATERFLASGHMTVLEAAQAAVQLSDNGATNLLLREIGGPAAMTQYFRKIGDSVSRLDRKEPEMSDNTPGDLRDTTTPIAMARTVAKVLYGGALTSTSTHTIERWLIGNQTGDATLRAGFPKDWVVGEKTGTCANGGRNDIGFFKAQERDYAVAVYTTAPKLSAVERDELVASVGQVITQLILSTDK
T2 sequence (P24735 27-397): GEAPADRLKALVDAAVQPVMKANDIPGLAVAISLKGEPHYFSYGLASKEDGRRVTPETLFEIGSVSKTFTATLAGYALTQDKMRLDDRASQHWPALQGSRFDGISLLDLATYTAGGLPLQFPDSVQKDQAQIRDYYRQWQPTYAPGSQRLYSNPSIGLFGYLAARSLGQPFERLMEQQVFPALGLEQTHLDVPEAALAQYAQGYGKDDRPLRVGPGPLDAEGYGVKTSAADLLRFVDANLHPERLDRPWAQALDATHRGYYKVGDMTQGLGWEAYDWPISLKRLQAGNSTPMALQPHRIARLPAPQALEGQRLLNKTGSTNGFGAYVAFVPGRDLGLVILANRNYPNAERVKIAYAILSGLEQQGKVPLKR

Structure (SMILES)	Ki [1] [µM]	drop in potency against KPC-2 [1]	FICI Antibiotic + inhibitor ([2]; P aeruginosa 12)	FICI Antibiotic + inhibitor ([2]; P aeruginosa 148)	nature of interaction with antibiotic [2]	FICI Antibiotic + inhibitor ([3]; Klebsiella 53A8)	FICI Antibiotic + inhibitor ([3]; Klebsiella 53A9)	FICI Antibiotic + inhibitor ([3]; Klebsiella 99D8)	Ki [4] [µM]	Ki [5] [µM]	MIC Antibiotic ([2]; P aeruginosa 12) [µg/mL]	MIC Antibiotic ([2]; P aeruginosa 148) [µg/mL]	nature of interaction with antibiotic [3]	drop in potency against AmpC [4]	higher activity against GES-5 with respect to KPC-2 ([5]; ratio of Ki KPC-2 to Ki GES-5) [fold]	Ki [6] [µM]
O=C(O)CCc1cccc(B(O)O)c1 [Compound 5]	53	up to 47 fold	0.3750	0.0936	synergism can be defined	2	1.5	2	5.3	69.4						
CC(C)(O/N=C(\C(=O)N[C@@H]1C(=O)N2C(C(=O)[O-])=C(C[n+]3ccccc3)CS[C@H]12)c1csc(N)n1)C(=O)O [CAZ, ceftazidime, reference compound]											32	128				
O=C(O)C=Cc1cccc(B(O)O)c1 [Compound 3, [3-(2-carboxyvinyl)phenyl] boronic acid]	31.2	up to 47 fold	0.5	0.375	synergism can be defined	2	1.5	2	1.45	24.6						
O=C(O)CCc1ccccc1B(O)O [Compound 4]	1.13		2	1.5		0.1875	0.2500	0.1250	76.1	1.83			clear synergistic activity	up to 50 fold		
O=C(O)C=Cc1ccccc1B(O)O [Compound 2, [2-(2-carboxyvinyl)-phenyl]boronic acid]	2.43		2	1		0.0117	0.0175	0.0156	41.7	0.11			clear synergistic activity	up to 50 fold	23	
OB(O)c1ccccc1 [Compound 1, phenylboronic acid]																4.85
